According to US8846873B2, “Antibodies directed to GPNMB and uses thereof” (Celldex Therapeutics, Inc., priority 2004, dated 2014):

Key:
Type in all cases: cell-based, human
A2058 = experiment: Clonogenic assay with 1.15.1-AE
Description: (§1) Melanoma cell lines were plated onto flat bottom 96-well tissue culture plates (Becton Dickinson, Franklin Lakes, N.J., USA). On day 2 or when cells reach ˜25% confluency, various concentrations of unconjugated and Auristatin E-conjugated 1.15.1 were added to cells. MAb 2.6.2-AE was also used as a conjugated isotype control in this study. On day 5, the cells were trypsinized, transferred to 6-well tissue culture plates and incubated at 37° C. Plates were examined daily. On days 8-10, all plates were Giemsa stained and colonies on the plates were counted.

HEMNLP = experiment: Clonogenic assay with 1.15.1-AE
Description: as §1

HT144 = experiment: Clonogenic assay with 1.15.1-AE
Description: as §1

LOXIMVI = experiment: Clonogenic assay with 1.15.1-AE
Description: as §1

M14 = experiment: Clonogenic assay with 1.15.1-AE
Description: as §1

MEWO = experiment: Clonogenic assay with 1.15.1-AE
Description: as §1

SK-Mel 5 = experiment: Clonogenic assay with 1.15.1-AE
Description: as §1

UACC-62 = experiment: Clonogenic assay with 1.15.1-AE
Description: as §1

WM-266-4 = experiment: Clonogenic assay with 1.15.1-AE
Description: as §1

HEK293 cells = experiment: Clonogenic assay, empty vector or GPNMB transfected cells; conditions: 96 hours treatment
Description: HEK293 cells are transfected with empty vector (vector) or GPNMB-containing plasmid (GPNMB) as described in Materials and Methods. A. Cell lysates are prepared from the transfected HEK293 cells and the expression of GPNMB (upper panel) or actin (lower panel) is determined by immunoblotting. Lane 1: Empty vector transfectants. Lane 2: GPNMB transfectants. B. Flow cytometry analysis of GPNMB expression on empty vector or GPNMB transfected cells. C. […] After a clonogenic assay, the surviving fraction is normalized to the untreated control and expressed as a percentage of the control using GraphPad Prism graphing software. Each treatment is performed in triplicate. A representative graph from two independent experiments is shown.
Cells were plated in 96-well plates and allowed to recover overnight. […] The cells were then transferred into 6-well plates and allowed to form colonies. Colonies were stained with Giemsa stain (Sigma) and counted. The surviving cell fractions were calculated based upon the ratio of the treated sample and the untreated control. The results were expressed as a percentage of control using GraphPad Prism Version 4 software.

CR011-vcMMAE: anti-GPNMB antibody 1.15.1 coupled to monomethylauristatin E via protease-sensitive valine-citrulline linker
Clonogenic Assay with 1.15.1-AE IC50 (A2058): No effect
Clonogenic Assay with 1.15.1-AE IC50 (HEMNLP): Inconclusive
Clonogenic Assay with 1.15.1-AE IC50 (HT144): Inconclusive
Clonogenic Assay with 1.15.1-AE IC50 (LOXIMVI): No effect
Clonogenic Assay with 1.15.1-AE IC50 (M14): Inconclusive
Clonogenic Assay with 1.15.1-AE IC50 (MEWO): Inconclusive
Clonogenic Assay with 1.15.1-AE IC50 (SK-Mel 5): 0.237 µg/mL
IC50 (SK-Mel 5): 1.6 nM
Clonogenic Assay with 1.15.1-AE IC50 (UACC-62): 0.697 µg/mL
IC50 (UACC-62): 4.3 nM
Clonogenic Assay with 1.15.1-AE IC50 (WM-266-4): 0.345 µg/mL
IC50 (WM-266-4): 2.3 nM
sensitivity to growth-inhibition, GPNMB-expressing vs control HEK293 cells (HEK293 cells): more sensitive
